Test results: patent US20250122182A1 (Isosterix, Inc., priority 2023, published 2025)

Molecular target: Recombinant KAT6A/MOZ (488-778) protein (Homo sapiens (Human), UniProt Q92794)
Experiment: KAT6A AlphaLISA Inhibition Screening Assay
Format: biochemical
Settings: for inhibition at 1 µM: read-out: Average Kat6A % inhibition @ 1 μM; for inhibition at 1 µM / Average Kat6A % inhibition @ 1 μM: 1 μM test compound; for inhibition at 10 µM: read-out: Average Kat6A % inhibition @ 10 μM; for inhibition at 10 µM / Average Kat6A % inhibition @ 10 μM: 10 μM test compound
How it was run: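 AlphaLISA read-out with anti-acetyl-lysine acceptor and streptavidin donor beads, % inhibition relative to vehicle. Reaction: biotinylated histone H3 1-21 (200 nM) and acetyl-CoA (400 nM) with KAT6A 488-778 (25 nM), 120 min at room temperature, pH 8.0, 330 nM TSA, after 60 or 10 min enzyme–compound pre-incubation; 10-point 3-fold series from 10 μM.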

Chain of Recombinant KAT6A/MOZ (488-778) protein (Q92794 488-778): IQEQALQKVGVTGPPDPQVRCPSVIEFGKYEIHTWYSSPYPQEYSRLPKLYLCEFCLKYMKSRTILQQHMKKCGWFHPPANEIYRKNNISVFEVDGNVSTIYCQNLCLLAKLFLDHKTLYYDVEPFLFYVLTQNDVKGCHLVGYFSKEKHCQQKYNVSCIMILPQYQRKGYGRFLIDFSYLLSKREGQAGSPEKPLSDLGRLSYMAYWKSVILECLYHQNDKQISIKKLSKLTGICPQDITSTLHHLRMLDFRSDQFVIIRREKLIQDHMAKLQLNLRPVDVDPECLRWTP

inhibition at 1 µM [%]	inhibition at 10 µM [%]	Average Kat6A % inhibition @ 1 μM [%]	Average Kat6A % inhibition @ 10 μM [%]	Compound
70	98	–	–	C#Cc1ccc(OC)c(S(=O)(=O)Nc2noc3cc(Cn4cc(CNC(=O)OC)cn4)cc(OC)c23)c1 [Syn. Ex. 112, methyl ((1-((3-((5-ethynyl-2-methoxyphenyl)sulfonamido)-4-methoxybenzo[d]isoxazol-6-yl)methyl)-1H-pyrazol-4-yl)methyl)carbamate]
98	100	–	–	C=C(F)C(=O)NCc1cnn(Cc2cc(OC)c3c(NS(=O)(=O)c4cc(CC)ccc4OCCO)noc3c2)c1 [Syn. Ex. 113, N-((1-((3-((5-ethyl-2-(2-hydroxyethoxy)phenyl)sulfonamido)-4-methoxybenzo[d]isoxazol-6-yl)methyl)-1H-pyrazol-4-yl)methyl)-2-fluoroacrylamide]
100	100	–	–	C=C(F)C(=O)NCc1cnn(Cc2cc(OC)c3c(NS(=O)(=O)c4cc(CC)ccc4OCc4cnn[nH]4)noc3c2)c1 [Syn. Ex. 114, N-((1-((3-((2-((1H-1,2,3-triazol-5-yl)methoxy)-5-ethylphenyl)sulfonamido)-4-methoxybenzo[d]isoxazol-6-yl)methyl)-1H-pyrazol-4-yl)methyl)-2-fluoroacrylamide]
100	100	–	–	CCc1ccc(OCC(=N)NO)c(S(=O)(=O)Nc2noc3cc(Cn4cc(CNC(=O)OC)cn4)cc(OC)c23)c1 [Syn. Ex. 115, methyl ((1-((3-((5-ethyl-2-(2-(hydroxyamino)-2-iminoethoxy)phenyl)sulfonamido)-4-methoxybenzo[d]isoxazol-6-yl)methyl)-1H-pyrazol-4-yl)methyl)carbamate]
100	100	–	–	CCc1ccc(OCc2ncc[nH]2)c(S(=O)(=O)Nc2noc3cc(Cn4cc(CNC(=O)OC)cn4)cc(OC)c23)c1 [Syn. Ex. 116, methyl ((1-((3-((2-((1H-imidazol-2-yl)methoxy)-5-ethylphenyl)sulfonamido)-4-methoxybenzo[d]isoxazol-6-yl)methyl)-1H-pyrazol-4-yl)methyl)carbamate]
100	100	–	–	CCc1ccc(OCc2nc[nH]n2)c(S(=O)(=O)Nc2noc3cc(Cn4cc(CNC(=O)OC)cn4)cc(OC)c23)c1 [Syn. Ex. 117, methyl ((1-((3-((2-((1H-1,2,4-triazol-3-yl)methoxy)-5-ethylphenyl)sulfonamido)-4-methoxybenzo[d]isoxazol-6-yl)methyl)-1H-pyrazol-4-yl)methyl)carbamate]
97	100	–	–	C=C(F)C(=O)NCc1cnn(Cc2cc(OC)c3c(NS(=O)(=O)c4cc(CC)ccc4OCC(=N)NO)noc3c2)c1 [Syn. Ex. 118, N-((1-((3-((5-ethyl-2-(2-(hydroxyamino)-2-iminoethoxy)phenyl)sulfonamido)-4-methoxybenzo[d]isoxazol-6-yl)methyl)-1H-pyrazol-4-yl)methyl)-2-fluoroacrylamide]
100	100	–	–	C=C(F)C(=O)NCc1cnn(Cc2cc(OC)c3c(NS(=O)(=O)c4cc(CC)ccc4OCc4ncc[nH]4)noc3c2)c1 [Syn. Ex. 119, N-((1-((3-((2-((1H-imidazol-2-yl)methoxy)-5-ethylphenyl)sulfonamido)-4-methoxybenzo[d]isoxazol-6-yl)methyl)-1H-pyrazol-4-yl)methyl)-2-fluoroacrylamide]
–	–	100	100	CCc1cc(S(=O)(=O)Nc2noc3cc(Cn4cc(CNC(=O)OC)cn4)cc(OC)c23)c(OC)cn1 [Syn. Ex. 120, methyl ((1-((3-((2-ethyl-5-methoxypyridine)-4-sulfonamido)-4-methoxybenzo[d]isoxazol-6-yl)methyl)-1H-pyrazol-4-yl)methyl)carbamate]
–	–	100	94	CCc1cnc(OC)c(S(=O)(=O)Nc2noc3cc(Cn4cc(CNC(=O)OC)cn4)cc(OC)c23)c1 [Syn. Ex. 121, methyl ((1-((3-((5-ethyl-2-methoxypyridine)-3-sulfonamido)-4-methoxybenzo[d]isoxazol-6-yl)methyl)-1H-pyrazol-4-yl)methyl)carbamate]
100	100	–	–	CCc1ccc(OCc2ccc(F)cc2)c(S(=O)(=O)Nc2noc3cc(Cn4cc(CNC(=O)OC)cn4)cc(OC)c23)c1 [Syn. Ex. 122, methyl ((1-((3-((5-ethyl-2-((4-fluorobenzyl)oxy)phenyl)sulfonamido)-4-methoxybenzo[d]isoxazol-6-yl)methyl)-1H-pyrazol-4-yl)methyl)carbamate]
100	100	–	–	CCc1ccc(OCc2cccnc2)c(S(=O)(=O)Nc2noc3cc(Cn4cc(CNC(=O)OC)cn4)cc(OC)c23)c1 [Syn. Ex. 123, methyl ((1-((3-((5-ethyl-2-(pyridin-3-ylmethoxy)phenyl)sulfonamido)-4-methoxybenzo[d]isoxazol-6-yl)methyl)-1H-pyrazol-4-yl)methyl)carbamate]
100	100	–	–	COC(=O)NCc1cnn(Cc2cc3onc(NS(=O)(=O)c4cc(F)ccc4OC)c3c3c2CCCO3)c1 [Syn. Ex. 124, methyl ((1-((9-((5-fluoro-2-methoxyphenyl)sulfonamido)-3,4-dihydro-2H-chromeno[8,7-d]isoxazol-5-yl)methyl)-1H-pyrazol-4-yl)methyl)carbamate]
100	101	–	–	CCc1ccc(S(=O)(=O)Nc2noc3cc(Cn4cc(CNC(=O)OC)cn4)cc(OC)c23)c(OC)c1 [Syn. Ex. 125, methyl ((1-((3-((4-ethyl-2-methoxyphenyl)sulfonamido)-4-methoxybenzo[d]isoxazol-6-yl)methyl)-1H-pyrazol-4-yl)methyl)carbamate]
–	–	101	100	COC(=O)NCc1cnn(Cc2cc(OC)c3c(NS(=O)(=O)c4cc5c(cc4OC)CCO5)noc3c2)c1 [Syn. Ex. 126, methyl ((1-((4-methoxy-3-((5-methoxy-2,3-dihydrobenzofuran)-6-sulfonamido)benzo[d]isoxazol-6-yl)methyl)-1H-pyrazol-4-yl)methyl)carbamate]
101	100	–	–	CCc1ccc(OCc2nnco2)c(S(=O)(=O)Nc2noc3cc(Cn4cc(CNC(=O)OC)cn4)cc(OC)c23)c1 [Syn. Ex. 127, methyl ((1-((3-((2-((1,3,4-oxadiazol-2-yl)methoxy)-5-ethylphenyl)sulfonamido)-4-methoxybenzo[d]isoxazol-6-yl)methyl)-1H-pyrazol-4-yl)methyl)carbamate]
101	100	–	–	C#CCOc1ccc(CC)cc1S(=O)(=O)Nc1noc2cc(Cn3cc(CNC(=O)OC)cn3)cc(OC)c12 [Syn. Ex. 128, methyl ((1-((3-((5-ethyl-2-(prop-2-yn-1-yloxy)phenyl)sulfonamido)-4-methoxybenzo[d]isoxazol-6-yl)methyl)-1H-pyrazol-4-yl)methyl)carbamate]
–	–	102	102	COC(=O)NCc1cnn(Cc2cc(OC)c3c(NS(=O)(=O)c4cccc5cc(C)cnc45)noc3c2)c1 [Syn. Ex. 129, methyl ((1-((4-methoxy-3-((3-methylquinoline)-8-sulfonamido)benzo[d]isoxazol-6-yl)methyl)-1H-pyrazol-4-yl)methyl)carbamate]
–	–	100	102	COC(=O)NCc1cnn(Cc2cc(OC)c3c(NS(=O)(=O)c4cc(C)cc5cccnc45)noc3c2)c1 [Syn. Ex. 130, methyl ((1-((4-methoxy-3-((6-methylquinoline)-8-sulfonamido)benzo[d]isoxazol-6-yl)methyl)-1H-pyrazol-4-yl)methyl)carbamate]
–	–	99	100	COC(=O)NCc1cnn(Cc2cc(OC)c3c(NS(=O)(=O)c4cccc5c(C)ccnc45)noc3c2)c1 [Syn. Ex. 131, methyl ((1-((4-methoxy-3-((4-methylquinoline)-8-sulfonamido)benzo[d]isoxazol-6-yl)methyl)-1H-pyrazol-4-yl)methyl)carbamate]
–	–	100	99	COC(=O)NCc1cnn(Cc2cc3onc(NS(=O)(=O)c4cc(C)cc5cccnc45)c3c3c2CCCO3)c1 [Syn. Ex. 132, methyl ((1-((9-((6-methylquinoline)-8-sulfonamido)-3,4-dihydro-2H-chromeno[8,7-d]isoxazol-5-yl)methyl)-1H-pyrazol-4-yl)methyl)carbamate]
100	103	–	–	COC(=O)NCc1cnn(Cc2cc3onc(NS(=O)(=O)c4ccccc4OC)c3c3c2CCCO3)c1 [Syn. Ex. 133, methyl ((1-((9-((2-methoxyphenyl)sulfonamido)-3,4-dihydro-2H-chromeno[8,7-d]isoxazol-5-yl)methyl)-1H-pyrazol-4-yl)methyl)carbamate]
97	101	–	–	COC(=O)NCc1cnn(Cc2cc3onc(NS(=O)(=O)c4ccccc4OC)c3c3c2CCO3)c1 [Syn. Ex. 134, methyl ((1-((8-((2-methoxyphenyl)sulfonamido)-2,3-dihydrobenzofuro[7,6-d]isoxazol-4-yl)methyl)-1H-pyrazol-4-yl)methyl)carbamate]
96	97	–	–	COC(=O)NCc1cnn(Cc2cc(OC)c3c(NS(=O)(=O)c4cc(C(F)F)ccc4OC)noc3c2)c1 [Syn. Ex. 135, methyl ((1-((3-((5-(difluoromethyl)-2-methoxyphenyl)sulfonamido)-4-methoxybenzo[d]isoxazol-6-yl)methyl)-1H-pyrazol-4-yl)methyl)carbamate]
